Assay results taken from US7605175B2, “Inhibitors of cyclin-dependent kinases, compositions and uses related thereto” (GPC Biotech AG, priority 2001, dated 2009).

Tests used:
HCT-116 cells [1] = experiment: BrdU incorporation assay; type: cell-based; details: Homo sapiens, read-out: Brd U, concentration that inhibits BrdU incorporation by 50%
Experimental: This method measured the percentage of cells that incorporated the nucleotide analog, BrdU, into newly synthesized DNA as cells progressed through the S phase of the cell cycle. The inhibition of BrdU incorporation was used as a measure of a Cdk inhibitor's effect on S phase progression and DNA replication.
3 sets of HCT-116 cells (100,000 cells/set) were plated in T25 flasks and incubated with a test compound as above. Analysis was done at 24, 48, and 72 hours. BrdU was added to each T-25 flask from a stock of 10 mg/ml to a final concentration of 10 μM and the cells were incubated for an additional 16-18 hours at 37° C. The cells were then prepared for flow cytometric analysis according to manufacturer's protocol (BrdU Flow kit, BD-Pharmingen catalogue #2354KK) as follows:
Cells were harvested (adherent and floating) from the T25 flasks directly into Falcon 12×75 flow cytometric tubes as above followed by fixation and permeabilization with the addition of 100 μl of Cytofix/Cytoperm buffer (30 minutes, room temperature). The cells were then washed with 1 ml of Perm Wash buffer and the cell pellets were resuspended in 100 μl Cytoperm Plus buffer and incubated on ice for 10 minutes. The cells were then washed again with 1 ml of Perm Wash buffer and the fixation was repeated in 100 μl of Cytofix/Cyto Perm buffer for 10 minutes at room temperature. The cells were then washed with 1 ml of Perm Wash buffer. The cells were next treated for one hour at 37° C. with 100 μl DNase to expose incorporated BrdU followed by another wash step with 1 ml of Perm Wash buffer. […] Cells were protected from light and incubated at room temperature for 20-30 minutes. Following the incubation, the cells were washed with 1 ml of Perm Wash buffer, resuspended in 300 μl of 2% FBS in PBS, and analyzed on the flow cytometer. Results are presented in Table 2 as the concentration of compound (μM) that inhibits of BrdU incorporation by 50%.

arrested IMR90 cells = experiment: Arrested cell assay, arrested IMR90 normal cells; type: cell-based; details: Homo sapiens, IMR-90; serum-starved arrested cells, 72 hours; read-out: Arrested cell assay IMR90 IC50
Experimental: (§1) Cyclin-dependent kinase (Cdk) activity is required to promote the progression of cells through distinct phases of the cell division cycle. The proliferation of normal, non-transformed, cells in culture requires the presence of growth factors, the removal of which, through serum deprivation, leads to a loss of Cdk activity and consequent exit from the cell cycle as cells enter the quiescent phase, G0.
IMR90 cells were plated in triplicate for each compound concentration to be tested in MEM-A media containing 10% fetal calf serum at a density of either 2,000 or 20,000 cells per well in 24-well dishes and incubated overnight at 37° C., 5% CO2. The media was removed from the 20,000 cell-per-well dish, cells were washed once with serum-free media, and serum-free media was placed on cells. The plates containing cells both in the presence and absence of serum were incubated for 3 additional days.
(§2) The cells are incubated in the presence of the compounds for 72 hours (3 days) at 37° C. […] Cycling and arrested HCT-116 cells as well as cycling IMR90 cells were exposed to a panel of 6 doses ranging from 5 to 250 nM. For arrested normal cells, the range of doses was increased to 50 nM to 25 μM, to compensate for the expected decrease in activity.
(§3) The effect of 72 hours of compound exposure on cellular viability was assessed in the Calcein AM assay. Calcein AM is a fluorescent substrate of intracellular esterases that are only active in viable cells. Cleavage of the substrate thus provides a measure of viability, which is proportional to cell number.
(§4) A Calcein AM stock solution was prepared by dissolving a 50 μg aliquot (Molecular Probes catalogue # C3100) in 50 μl DMSO. The tube was incubated at room temperature for approximately 10 minutes to ensure that the Calcein had dissolved completely. The calcein was diluted into 10 ml PBS to prepare the final solution, which was protected from light.
(§5) The media was aspirated off the cells, which were then washed twice with 1 ml PBS to remove the PBS completely from cells by aspiration. 0.5 ml of the Calcein/PBS solution was transferred by pipette into each well. The plates were incubated at 37° C. for 75 minutes (protected from light) and read on a fluorescent plate reader (excitation 485/20 and emission 530/25).

arrested HCT-116 cells = experiment: Arrested cell assay, arrested HCT-116 tumor cells; type: cell-based; details: Homo sapiens, serum-starved arrested cells, 72 hours, read-out: Arrested cell assay HCT IC50
Experimental: as §1
HCT-116 cells were plated in triplicate for each compound concentration to be tested in RPMI 1640 media containing 10% fetal calf serum at a density of either 200 or 2,000 cells per well in 24 well dishes, and incubated overnight at 37° C., 5% CO2. The media from the plate containing 2,000 cells per well was removed, cells were washed once with serum free media and 1 ml of serum free media was placed on cells. The plates containing cells both in the presence and absence of serum were incubated for 6 additional days.
as §2, §3, §4, §5

HCT-116 cells [2] = experiment: Calcein AM viability assay, HCT-116; type: cell-based; details: Homo sapiens
Experimental: The potency of Cdk inhibitors, as measured by loss of cellular viability, was determined with the Calcein AM assay (Molecular Probes). Calcein AM is a substrate of intracellular esterases, which is cleaved only in viable cells to generate a fluorescent product that can be quantified with a fluorescent plate reader. The fluorescent signal is proportional to the number of viable cells, and thus loss of signal in response to the exposure of cells to Cdk inhibitors correlates with a loss of viability. This assay can distinguish cell cycle arrest, in which cells may still by viable, from loss of viability and is thus well suited for the evaluation of Cdk inhibitors. A compound that is a potent cytotoxic, may cause significant loss of cell viability in such assay.
Cellular IC50's were determined in the human colorectal carcinoma cell line, HCT-116, and the normal human fibroblast, IMR90. Protein adjusted IC50's were also determined in HCT-116.
HCT-116 or IMR90 cells were recovered from sub-confluent plates by trypsinization and 1,000 or 4,000 cells, respectively, were plated in 24-well dishes and incubated overnight at 37° C., 5% CO2. HCT-116 cells were cultured in RPMI-1640, 10% FCS, and IMR90 cells were cultured in Minimum Essential Medium-alpha, 10% FCS. After overnight incubation to allow adherence, the media was aspirated from each well and replaced with media containing a test compound at a concentration from 0 to 250 nM, spanning a total of 7 doses. The plates were returned to the incubator and cultured for an additional 72 hours (3 days). […] After 72-hours incubation with the test compound, the cells were washed twice with 1×PBS, taking special care to remove all residual buffer.
A 5 μM Calcein AM solution was prepared by dissolving a […] aliquot of Calcein (Molecular Probes catalog # C3100) in 50 μl DMSO. After the Calcein had completely dissolved (10 minutes at room temperature), it was diluted into 10 ml PBS. Calcein/PBS (0.5 ml) was added to each well. The plates were incubated for 75 minutes at 37° C. (protected from light) and the fluorescent signal was read on a fluorescent plate reader (excitation 485/20 and emission 530/25).

Cdk2/cyclin E = molecular target: T1, Cdk2/cyclin E (Homo sapiens, UniProt P24941); experiment: Biochemical kinase assay Cdk2/cyclin E; details: Table 6
T1 construct: made in house; host or cells: Sf9 insect cells
Source text: (§6) Enzymes: Cdc2/cyclin B was obtained from commercial sources. Cdk2/his-cyclin Eshort was expressed in Sf9 cells. Cdk2/cyclin A, cdk4/cyclin D1, and cdk6/cyclin D2 were expressed in Sf9 cells. Protein kinase A (catalytic subunit, from bovine heart) and protein kinase C (mixed isozymes from rat brain) were obtained from commercial sources.
(§7) Substrates: Histone H1 was from commercial sources. GST-Rb is glutathione-S-trans-ferase fused to the N-terminal of residues 379-928 of the Rb protein.
(§8) Cdk2/cyclin E, Cdk2/cyclin A, Cdk4/cyclin D1, and Cdk6/cyclin D2 activity was determined using a glutathione-sepharose capture assay. The enzymes were expressed in Sf9 insect cells as heterodimers, and the substrate (GST-Rb) was glutathione-S-transferase fused to residues 379 to 928 of Rb retinoblastoma protein, expressed in E. coli. The assay solution contained 50 mM Tris.HCl, 10 mM MgCl2, 1 mM dithiothreitol, 50 μM adenosine triphosphate, 2 μCi [γ-^33P]adenosine triphosphate, 10% dimethylsulfoxide (from compounds), pH 7.5, 40 μg GST-Rb, and enzyme in a 100 μL volume. Compounds were added at various concentrations between 1 nM and 10 μM. The reaction was allowed to proceed for 15 min at 30° C. and was stopped by the addition of 70 μL of stop solution (237 mM disodium ethylene-diamine tetraacetate, 105 mM adenosine triphosphate, pH 8.0). The GST-Rb was captured by binding to glutathione-sepharose bead (Amersham) for 110 min, and the suspension was filtered through a glass fiber filter. After washing the retained beads five time with phosphate-buffered saline containing 0.3% (w/v) Tween-20, the amount of ^33P incorporated was determined by scintillation counting after adding 100 μL scintillant. Relative activity was determined by dividing the amount of radioactivity incorporated in the presence of compound by the amount of radioactivity incorporated in a control experiment containing DMSO alone but no compound. The background radioactivity, determined in an experiment containing 50 mM disodium ethylenediamine tetraacetate in place of compound, was subtracted from all results before calculations.

Cdk4/cyclin D1 = molecular target: T2, Cdk4/cyclin D1 (Homo sapiens, UniProt P11802); experiment: Biochemical kinase assay Cdk4/cyclin D1; details: Table 6
T2 construct: made in house; host or cells: Sf9 insect cells
T2 sequence (P11802 whole entry, species assumed): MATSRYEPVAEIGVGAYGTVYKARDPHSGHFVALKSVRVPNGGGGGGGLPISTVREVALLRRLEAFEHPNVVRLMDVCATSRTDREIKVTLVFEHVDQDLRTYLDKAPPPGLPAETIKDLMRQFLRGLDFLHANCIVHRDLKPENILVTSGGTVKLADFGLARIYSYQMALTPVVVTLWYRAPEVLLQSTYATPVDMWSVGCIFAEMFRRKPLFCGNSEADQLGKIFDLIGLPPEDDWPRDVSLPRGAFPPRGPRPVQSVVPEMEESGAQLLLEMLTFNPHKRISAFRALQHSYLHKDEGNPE
T2 sequence (P24385 whole entry partner, species assumed): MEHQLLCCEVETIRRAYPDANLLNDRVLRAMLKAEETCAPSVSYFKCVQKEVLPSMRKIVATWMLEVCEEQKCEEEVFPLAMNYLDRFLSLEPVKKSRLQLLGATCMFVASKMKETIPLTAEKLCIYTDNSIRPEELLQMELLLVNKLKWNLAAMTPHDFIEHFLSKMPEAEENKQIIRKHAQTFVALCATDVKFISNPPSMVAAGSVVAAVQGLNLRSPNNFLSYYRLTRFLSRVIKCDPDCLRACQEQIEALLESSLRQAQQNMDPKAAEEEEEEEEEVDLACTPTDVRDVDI
Source text: as §6, §7, §8

Cdc2/cyclin B = molecular target: T3, Cdc2/cyclin B (Homo sapiens, UniProt P06493); experiment: Biochemical kinase assay Cdc2/cyclin B; details: Table 6
T3 construct: purchased
T3 sequence (P06493 whole entry, species assumed): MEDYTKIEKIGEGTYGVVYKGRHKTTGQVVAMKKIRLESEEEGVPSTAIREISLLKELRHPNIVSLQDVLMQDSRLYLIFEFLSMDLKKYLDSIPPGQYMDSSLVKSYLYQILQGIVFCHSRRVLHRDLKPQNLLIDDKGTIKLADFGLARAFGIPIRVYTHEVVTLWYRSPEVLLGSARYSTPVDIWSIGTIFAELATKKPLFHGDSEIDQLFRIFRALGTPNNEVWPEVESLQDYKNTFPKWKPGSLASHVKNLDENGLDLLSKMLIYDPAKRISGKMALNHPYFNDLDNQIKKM
T3 sequence (P14635 whole entry partner, species assumed): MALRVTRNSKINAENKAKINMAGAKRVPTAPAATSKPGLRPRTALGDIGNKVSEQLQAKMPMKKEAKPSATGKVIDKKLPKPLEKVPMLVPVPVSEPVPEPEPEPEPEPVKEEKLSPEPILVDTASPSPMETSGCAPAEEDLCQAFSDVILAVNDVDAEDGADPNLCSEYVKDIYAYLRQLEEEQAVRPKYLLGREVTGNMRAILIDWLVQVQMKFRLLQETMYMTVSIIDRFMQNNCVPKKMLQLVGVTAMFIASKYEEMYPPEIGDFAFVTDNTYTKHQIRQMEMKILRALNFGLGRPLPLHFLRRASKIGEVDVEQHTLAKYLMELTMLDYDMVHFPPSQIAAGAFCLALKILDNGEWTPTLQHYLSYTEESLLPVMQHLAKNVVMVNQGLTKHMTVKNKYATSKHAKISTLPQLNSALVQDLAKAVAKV
Source text: as §6, §7
Assays: Cdc2/cyclinB activity was determined by measuring incorporation of radio-activity from adenosine [γ-^32P]triphosphate into Histone H1 using a TCA precipitation assay. Cdc2/cyclin B kinase and Histone H1 were obtained from commercial sources. The final assay solution contained 50 mM Tris.HCl, 10 mM MgCl2, 1 mM dithiothreitol, 50 μM adenosine triphosphate, 2 μCi ^32P, 10% dimethylsulfoxide (from compounds), pH 7.5, 20 μg Histone H1, 6 U enzyme in a 50 μL volume. Compounds were added at various concentrations between 1 nM and 10 μM. The reaction was started with the addition of enzyme, allowed to proceed for 20 min at 30° C., and stopped by the addition of 20 μL of stop solution (237 mM disodium ethylenediamine tetraacetate, 105 mM adenosine triphosphate, pH 8.0). The protein was precipitated by the addition of 35 μL 70% (w/v) trichloroacetic acid, and the precipitate was captured on a 96-well glass fiber filter plate (Millipore, Inc.), which had been wet with 25% (w/v) trichloroacetic acid. The filter was washed ten times with 25% (w/v) trichloroacetic acid, and the amount of incorporated ^32P was determined by scintillation counting after adding 100 μL scintillant (Microscint 20, Packard Instruments). Relative activity was determined by dividing the amount of radioactivity incorporated in the presence of compound by the amount of radioactivity incorporated in a control experiment containing DMSO alone but no compound. The background radioactivity, determined in an experiment containing 50 mM EDTA in place of compound, was subtracted from all results before calculations.

[3] = HCT-116, non-protein adjusted, Table 6, read-out: HCT-116 viability IC50

SMILES	IC50 (Cdk2/cyclin E)	IC50 (Cdk4/cyclin D1)	IC50 (HCT-116 cells [2]; [3])	IC50 (Cdc2/cyclin B)	also measured
CC(C)c1nn(-c2c(Cl)cc(Cl)cc2Cl)c2nc(Cc3ccc(NS(=O)(=O)CCCN4CCOCC4)cc3)[nH]c(=O)c12 [D]					IC50 (HCT-116 cells [1]; HCT-116, 48 h): < 0.1 µM; IC50 (HCT-116 cells [1]; HCT-116, 72 h): < 0.1 µM; IC50 (arrested IMR90 cells): > 1 µM; IC50 (arrested HCT-116 cells): < 0.01 µM
Cc1cc(OCCN2CCCC2)ccc1-c1[nH]nc2c1C(=O)c1c(NC(=O)NN3CCN(C)CC3)cccc1-2 [L]					IC50 (HCT-116 cells [1]; HCT-116, 24 h): < 0.1 µM; IC50 (HCT-116 cells [2]; HCT-116, 72 h, Calcein AM, 72 hours, read-out: HCT-116 IC50 Viability): < 0.1 µM
COCCOc1ccc(Cc2nc3c(c(C(C)C)nn3-c3c(Cl)cccc3Cl)c(=O)[nH]2)cc1 [Compound A66]	< 0.1 µM	< 10 µM	< 0.1 µM	< 0.1 µM	
CC(C)c1nn(-c2c(Cl)cc(Cl)cc2Cl)c2nc(Cc3ccc(CN4CCN(C(C)C)CC4)n3C)[nH]c(=O)c12 [Compound A42]	< 0.1 µM	< 1 µM	< 0.1 µM	< 1 µM	
CN1CCN(NC(=O)Nc2cccc3c2C(=O)c2c-3n[nH]c2-c2ccc(OCCN3CCCC3)cc2)CC1 [F]					IC50 (HCT-116 cells [1]; HCT-116, 72 h): < 1 µM; IC50 (arrested IMR90 cells): > 1 µM; IC50 (HCT-116 cells [2]; HCT-116, plus 1 mg/ml alpha acidic glycoprotein and 45 mg/ml human serum albumin, read-out: HCT-116 IC50 Protein adjusted): < 0.1 µM
CC(C)c1nn(-c2c(Cl)cc(Cl)cc2Cl)c2nc(Cc3ccc(CN4CCCC4)n3C)[nH]c(=O)c12 [Compound A43]	< 0.1 µM	< 1 µM	< 0.1 µM	< 1 µM	
CC(C)c1nn(-c2c(Cl)cc(S(N)(=O)=O)cc2Cl)c2nc(Cc3ccc(OCCN4CCOCC4)cc3)[nH]c(=O)c12 [Compound A54]	< 0.01 µM	< 1 µM	< 0.1 µM	< 0.01 µM	
CC(C)c1nn(-c2c(Cl)cccc2Cl)c2nc(Cc3ccc(OCCOP(=O)(O)O)cc3)[nH]c(=O)c12 [Compound A62]	< 0.1 µM	< 10 µM	< 0.1 µM	< 0.1 µM	
CC(C)c1nn(-c2c(Cl)cccc2Cl)c2nc(Cc3ccc(NS(=O)(=O)CCCN4CCOCC4)cc3)[nH]c(=O)c12 [Compound A30]	< 0.1 µM	< 1 µM	< 0.1 µM	< 1 µM	
CC(C)c1nn(-c2c(Cl)cccc2Cl)c2nc(Cc3ccc(C(=O)NOCCN4CCOCC4)cc3)[nH]c(=O)c12 [Compound A52]	< 0.1 µM	< 1 µM	< 0.1 µM	< 1 µM	
CC(C)c1nn(-c2c(Cl)cccc2Cl)c2nc(Cc3ccc(OCCN4CCOCC4)cc3)[nH]c(=O)c12 [Compound A2]	< 0.01 µM	< 10 µM	< 0.1 µM	< 1 µM	
